{
  "source": "patent US20100144853A1",
  "about": "“NOVEL COMBINED ADMINISTRATION” (priority 2008, published 2010)",
  "type_in_all_cases": "in vitro ADME",
  "key": {"[1]": {"system": "Lipase from Hog Pancreas", "experiment": "Stability of COMPOUND A with Lipase, with and without COMPOUND B (Example 1)", "conditions": "0.55 mg/mL (11 U/mL) Lipase", "experimental": "(a) FeSSIF (Fed State Simulated Intestinal Fluid) and phosphate buffered saline solution:\n(b) Stock A=drug solution (0.5 mg/mL):\n5 mg of thioisobutyric acid S-(2-{[1-(2-ethyl-butyl)-cyclohexanecarbonyl]-amino}-phenyl)ester (COMPOUND A) were dissolved in 50 μL ethanol and 950 μL mixed micelles Soybean lecithin/Sodium glycocholate (158/97 mg/mL) in water were added. One part of the mixture was diluted with 9 parts of phosphate buffered saline solution at pH 6.5.\n(c) Stock B=esterase inhibitor solution (1.0 mg/mL)\n5 mg 1-(3-hexyl-4-oxo-oxetan-2-yl)tridecan-2-yl 2-formyl-amino-4-methyl-pentanoate (COMPOUND B) were dissolved in 250 μL ethanol. 4.75 mL mixed micelles soybean lecithin/sodium glycocholate (30/80.6 mg/mL) were added to give a solution of 1 mg/mL COMPOUND B.\n(d) Stock C=Lipase in phosphate buffered saline solution (PBS) pH 6.5 (example given at 24 mg/mL, with a final enzyme activity of about 450 U/mL)\n(§1) 240 mg Lipase (Lipase from Hog Pancreas, 20.6 U/mg Lipase, CAS No. 9001-62-1, Fluka, Art. No. 62300) were weighed into a vial and dissolved by stirring in 10 mL phosphate buffered saline solution pH 6.5. Any undissolved material was removed by centrifugation during 5 min at 5000 rpm. The supernatant was used for the experiments and diluted with PBS to obtain the Lipase at the final concentration of 0.55 mg/mL.\n[…] To this, 200 μL of drug solution (stock A) were injected at time zero. The mixture was incubated at 37° C., while mixing gently with a rotating shaker at about 2 rpm. At regular intervals 200 μL samples were taken and diluted immediately with 600 μL of isopropanol. The combined solution/suspension was centrifuged during 5 min at 3000 rpm and the concentration of COMPOUND A as well as its potential degradation products were determined in the supernatant by HPLC analysis.\nTo obtain the value at time zero, 600 μL of isopropanol were added to 180 μL of a 0.55 mg/mL Lipase in a phosphate buffered saline solution to inhibit the enzymes followed by the addition of 20 μL of drug solution (stock A)."}, "[2]": {"system": "Lipase from Hog Pancreas", "experiment": "Stability of COMPOUND A with Lipase, Procedure A (premix of Lipase and COMPOUND B, then COMPOUND A)", "conditions": "10 min, 0.55 mg/mL (11 U/mL) Lipase", "experimental": "as §1\nProcedure A (Premix of Lipase and COMPOUND B, Followed by Addition of Compound A):\n1600 μL of Lipase in phosphate buffered saline solution (from stock C) to obtain a final enzyme concentration of 0.55 mg/mL) were mixed with 200 μL of COMPOUND B (stock B) and pre-incubated during 5 min at 37° C. At time zero 200 μL of drug solution (stock A) were added. The mixture was incubated at 37° C. After 10 min, the reaction was stopped by dilution of one part of the mixture with 3 parts of isopropanol."}, "[3]": {"experiment": "Stability of COMPOUND A in human intestinal fluids, Procedure F (suspension, no separation of excess), first table", "conditions": "fasted HIF", "experimental": "Fasted Intestinal Fluids: the fluids from 4 different subjects were collected with a naso-jejunal tube after fasting overnight and pooled.\nProcedure F (COMPOUND A and COMPOUND B in suspension, the degradation immediately stopped without separation of excess compound): Stock K=COMPOUND B suspension (0.5 mg/mL)\nDilute 1 part of COMPOUND B suspension (stock J) with 3 parts of FeSSIF pH6.5 solution.\n500 μL of freshly thawed intestinal fluids (fasted and stimulated state) were added to 1.2 mg of COMPOUND A in a 1 mL glass vial. The suspended compound was stirred for 15 min at 37° C. to obtain wetting and a homogenous suspension. In parallel, 4 glass vials were prepared with 20 μL of a COMPOUND B suspension at different concentrations. These concentrations were obtained by mixing FeSSIF pH6.5 and COMPOUND B suspension (stock K) in different ratios, respectively 1:[…], 1:1, 0:1 to obtain 0, 1, 2 and 4% related to COMPOUND A. At time zero, 100 μL of COMPOUND A suspension preincubated at 37° C. were added to the 20 μL COMPOUND B suspension. The mixture was incubated at 37° C. with gentle stirring. After 15 min and 60 min, the reaction was stopped by mixing a 50 μL sample with 150 μL isopropanol and centrifuged at 5′000 rpm during 5 min. The clear supernatant was analyzed for the hydrolysis product and its oxidized form by HPLC."}},
  "data": [
    {"smiles": "CCC(CC)CC1(C(=O)Nc2ccccc2SC(=O)C(C)C)CCCCC1", "note": "[COMPOUND A, thioisobutyric acid S-(2-{[1-(2-ethyl-butyl)-cyclohexanecarbonyl]-amino}-phenyl)ester]", "values": [
      {"measurement": "Concentration of COMPOUND A", "setting": "[1]; +100 μg/mL COMPOUND B, 5 min", "result": 48.2, "unit": "µg/mL"},
      {"measurement": "Concentration of COMPOUND A", "setting": "[1]; +100 μg/mL COMPOUND B, 10 min", "result": 48.2, "unit": "µg/mL"},
      {"measurement": "Concentration of COMPOUND A", "setting": "[1]; +100 μg/mL COMPOUND B, 15 min", "result": 48.2, "unit": "µg/mL"},
      {"measurement": "Concentration of COMPOUND A", "setting": "[1]; +100 μg/mL COMPOUND B, 20 min", "result": 48.0, "unit": "µg/mL"},
      {"measurement": "Concentration of COMPOUND A", "setting": "[1]; +100 μg/mL COMPOUND B, 30 min", "result": 48.3, "unit": "µg/mL"},
      {"measurement": "Concentration of COMPOUND A", "setting": "[1]; +100 μg/mL COMPOUND B, 60 min", "result": 40.1, "unit": "µg/mL"},
      {"measurement": "Concentration of COMPOUND A", "setting": "[1]; time 0 min (column +100 μg/mL COMPOUND B), theoretical 50 μg/mL", "result": 46.9, "unit": "µg/mL"},
      {"measurement": "Concentration of COMPOUND A", "setting": "[1]; w/o COMPOUND B, 5 min", "result": 27.2, "unit": "µg/mL"},
      {"measurement": "Concentration of COMPOUND A", "setting": "[1]; w/o COMPOUND B, 10 min", "result": 14.7, "unit": "µg/mL"},
      {"measurement": "Concentration of COMPOUND A", "setting": "[1]; w/o COMPOUND B, 15 min", "result": 7.3, "unit": "µg/mL"},
      {"measurement": "Concentration of COMPOUND A", "setting": "[1]; w/o COMPOUND B, 20 min", "result": 4.1, "unit": "µg/mL"},
      {"measurement": "Concentration of COMPOUND A", "setting": "[1]; w/o COMPOUND B, 30 min", "result": "<0.1", "unit": "µg/mL"},
      {"measurement": "Concentration of COMPOUND A", "setting": "[1]; w/o COMPOUND B, 60 min", "result": "<0.1", "unit": "µg/mL"},
      {"measurement": "Concentration of COMPOUND A", "setting": "[2]; COMPOUND B 0 μg/mL", "result": 14.7, "unit": "µg/mL"},
      {"measurement": "Concentration of COMPOUND A", "setting": "[2]; COMPOUND B 50 μg/mL", "result": 46.4, "unit": "µg/mL"},
      {"measurement": "Concentration of COMPOUND A", "setting": "[2]; COMPOUND B 100 μg/mL", "result": 48.2, "unit": "µg/mL"},
      {"measurement": "Concentration of COMPOUND A", "setting": "[3]; COMPOUND B 0 μg/mL (0%), T = 15 min", "result": 1111.92, "unit": "µg/mL"},
      {"measurement": "Concentration of COMPOUND A", "setting": "[3]; COMPOUND B 0 μg/mL (0%), T = 60 min", "result": 182.50, "unit": "µg/mL"},
      {"measurement": "Concentration of COMPOUND A", "setting": "[3]; COMPOUND B 20 μg/mL (1%), T = 15 min", "result": 1299.01, "unit": "µg/mL"},
      {"measurement": "Concentration of COMPOUND A", "setting": "[3]; COMPOUND B 20 μg/mL (1%), T = 60 min", "result": 718.26, "unit": "µg/mL"},
      {"measurement": "Concentration of COMPOUND A", "setting": "[3]; COMPOUND B 40 μg/mL (2%), T = 15 min", "result": 1381.23, "unit": "µg/mL"},
      {"measurement": "Concentration of COMPOUND A", "setting": "[3]; COMPOUND B 40 μg/mL (2%), T = 60 min", "result": 598.81, "unit": "µg/mL"},
      {"measurement": "Concentration of COMPOUND A", "setting": "[3]; COMPOUND B 80 μg/mL (4%), T = 15 min", "result": 1728.95, "unit": "µg/mL"},
      {"measurement": "Concentration of COMPOUND A", "setting": "[3]; COMPOUND B 80 μg/mL (4%), T = 60 min", "result": 826.93, "unit": "µg/mL"}
    ]}
  ]
}
